Values after ≈ are worked out from the molar mass of the structure shown. Read-outs that look alike come from different tables or passages of the source. No end group written: not given here.
Experiments:
[1] = tested on: P. aeruginosa; type: cell-based, Pseudomonas aeruginosa; conditions: P. aeruginosa H744; MIC of nalidixic acid with peptide at ¼ MIC
Summary of the method: (§1)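 Synergy against efflux-mutant strains: two-fold dilutions of nalidixic acid or chloramphenicol tested with peptide held at ¼ of its MIC.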

[2] = tested on: P. aeruginosa H374; type: cell-based, Pseudomonas aeruginosa; conditions: for MIC Cm-comb.: MIC of chloramphenicol with peptide at ¼ MIC; for MIC Nal-comb.: MIC of nalidixic acid with peptide at ¼ MIC; for FIC Index: 0.5 or less = synergy
Summary of the method: as §1

[3] = tested on: P. aeruginosa H774; type: cell-based, Pseudomonas aeruginosa; conditions: P. aeruginosa H744; nalidixic acid + peptide at ¼ MIC; 0.5 or less = synergy
Summary of the method: as §1

[4] = tested on: S. epidermidis C621; type: cell-based, Staphylococcus epidermidis; conditions: mean of three; 16 to 20 hours at 35° C.
[5] = tested on: P. acne ATCC 6919; test: Antimicrobial assays II, NCCLS broth microdilution MIC; type: cell-based, Propionibacterium acnes; conditions: mean of three, in µg/mL
[6] = tested on: E. coli UB1005; type: cell-based, Escherichia coli; conditions: mean of three; 16 to 20 hours at 35° C.; in µg/mL
[7] = in vitro; conditions: human, WI38 normal lung fibroblast cells, LD50 WI38, WI38 normal lung fibroblast line, MTT, 24 hours with peptide
[8] = tested on: S. aureus (MRSA); type: cell-based, Staphylococcus aureus; conditions: mean of three; 16 to 20 hours at 35° C.
[9] = tested on: WI38; conditions: MTT, 24 hours with peptide; normal fibroblast line
[10] = tested on: S. pneumoniae C719; test: Antimicrobial assays II, NCCLS broth microdilution MIC; type: cell-based, Streptococcus pneumoniae; conditions: mean of three, in µg/mL
[11] = tested on: P. aeruginosa H374; type: cell-based, Pseudomonas aeruginosa; conditions: mean of three; 16 to 20 hours at 35° C.
[12] = tested on: S. pyogenes M76; test: Antimicrobial assays II, NCCLS broth microdilution MIC; type: cell-based, Streptococcus pyogenes; conditions: mean of three; 16 to 20 hours at 35° C.
[13] = tested on: BMKC; test: Anti-cancer assay, MTT, LD50; type: cell-based; conditions: BMKC cloned melanoma line, 24 hours with peptide
Description: (§2) Numbers are LD50 values (μg/mL).

[14] = tested on: PC3; test: Anti-cancer assay, MTT, LD50; type: cell-based; conditions: 24 hours with peptide, prostate adenocarcinoma
Description: as §2

[15] = tested on: HeLaS3; test: Anti-cancer assay, MTT, LD50; type: cell-based; conditions: 24 hours with peptide, cervical carcinoma
Description: as §2

[16] = tested on: H1299; test: Anti-cancer assay, MTT, LD50; type: cell-based; conditions: 24 hours with peptide, lung large cell carcinoma
Description: as §2

[17] = tested on: MCF7; test: Anti-cancer assay, MTT, LD50; type: cell-based; conditions: MCF7 breast adenocarcinoma line, MTT, 24 hours with peptide
Description: as §2

[18] = tested on: SW480; test: Anti-cancer assay, MTT, LD50; type: cell-based; conditions: SW480 colon adenocarcinoma line, 24 hours with peptide
Description: as §2

[19] = tested on: S. pyogenes ATCC19615; test: Antimicrobial assays II, NCCLS broth microdilution MIC; type: cell-based, Streptococcus pyogenes; conditions: mean of three, in µg/mL
[20] = tested on: S. pneumoniae C718; test: as above; type: cell-based, Streptococcus pneumoniae; conditions: mean of three
[21] = tested on: S. typhimurium 14028S; type: cell-based, Salmonella typhimurium; conditions: mean of three; 16 to 20 hours at 35° C.; in µg/mL
[22] = in vitro; type: cell-based, human; conditions: human, human red blood cells, pH 7, hemolytic assay, concentration at 50% hemolysis, 1 hour at 37° C.; read-out: LD50
[23] = tested on: Staphylococcus aureus ATCC 6538; test: Antimicrobial assay I, MIC by OD measurement; type: cell-based; conditions: 37° C. for 24 hours, absorbance 620 nm
[24] = tested on: Pseudomonas aeruginosa ATCC 9027; test: Antimicrobial assay I, MIC by OD measurement; type: cell-based; conditions: 37° C. for 24 hours, absorbance 620 nm
[25] = tested on: yeast (Saccharomyces cerevisiae); test: Antimicrobial assay I, yeast assay in RPMI 1640; type: cell-based; conditions: RPMI 1640 media
[26] = chloramphenicol + peptide at ¼ MIC
[27] = nalidixic acid + peptide at ¼ MIC, FIC=0.25+MIC comb/MIC alone

Row | Compound | MIC Nal-comb. [1] [µg/mL] | MIC Cm-comb. [2] [µg/mL] | MIC Nal-comb. [2] [µg/mL] | FIC Index [2, 26] | FIC Index [2, 27] | FIC Index [3] | S. epidermidis C621 MIC [4] [µg/mL] | P. acne MIC [5] | CC50 at 24 h [7] [µg/mL] | S. aureus (MRSA) MIC [8] [µg/mL] | WI38 LD50 [9] [µg/mL] | S. pneumoniae MIC [10] | S. pyogenes M76 MIC [12] [µg/mL] | LD50 BMKC [13] [µg/mL] | PC3 LD50 [14] [µg/mL] | HeLaS3 LD50 [15] [µg/mL] | H1299 LD50 [16] [µg/mL] | LD50 MCF7 [17] [µg/mL] | LD50 SW480 [18] [µg/mL] | S. pyogenes MIC [19] | other results
1 | CC(C)C[C@H](NC(=O)[C@H](C)NC(=O)[C@H](CC(C)C)NC(=O)[C@H](CCCCN)NC(=O)[C@H](C)NC(=O)[C@H](CC(C)C)NC(=O)[C@H](CCCCN)NC(=O)[C@H](CCCCN)NC(=O)[C@H](C)NC(=O)[C@H](CC(C)C)NC(=O)[C@H](CCCCN)NC(=O)[C@H](C)NC(=O)[C@H](CC(C)C)NC(=O)[C@H](CCCCN)NC(=O)[C@H](CCCCN)NC(=O)[C@H](C)NC(=O)[C@@H](N)Cc1ccccc1)C(=O)O [P61] | 624 | 16 | 5000 | 1.25 | 1.25 | 1.25 | 8 | 2 | 93 (≈ 50.1 µM) | 32 | 93 | 32 | 16 | 140 | 66 | 170 | 127 | 105 | 100 | 16 | E. coli UB1005 MIC [6]: 2; P. aeruginosa H374 MIC [11]: 4 µg/mL; S. pneumoniae MIC [20]: 128 µg/mL; S. typhimurium 14028S MIC [21]: 4; HC50 at 1 h [22]: 390 µg/mL
2 | FAKKLAKKLKKLAKLALAK-NH2 [P41] | 624 | 16 | 5000 | 1.25 | 1.25 | 1.25 | 4 | 4 | 175 | 64 | 175 | 32 | 8 | 290 | 140 | 185 | 245 | 98 | 120 | 8 | E. coli UB1005 MIC [6]: 2; staph6538 (MIC) [23]: 10 µg/mL; paerug9027 (MIC) [24]: 10 µg/mL; P. aeruginosa H374 MIC [11]: 4 µg/mL; S. pneumoniae MIC [20]: 64 µg/mL; S. typhimurium 14028S MIC [21]: 4; HC50 at 1 h [22]: 40 µg/mL
3 | FALAKLAKKAKAKLKKALKAL-NH2 [P26] | 624 | 8 | 2500 | 0.75 | 0.75 | 1.25 | 4 | 4 | 96 | 32 | 96 | 16 | 4 | 94 | 125 | 150 | 84 | 74 | 8 | 4 | staph6538 (MIC) [23]: 10 µg/mL; paerug9027 (MIC) [24]: 15 µg/mL; yeast (MIC or MFC) [25]: > (> indicates greater than 200 μg/mL); S. pneumoniae MIC [20]: > 128 µg/mL; HC50 at 1 h [22]: 90 µg/mL
4 | FALALKALKKLAKKLKKLAKKAL-NH2 [P25] | 156 | 4 | 2500 | 0.5 | 0.75 | 0.5 | 4 | 2 | 24 | 16 | 24 | 8 | 8 | 36 | 12 | 20 | 37 | 10 | 12 | 8 | staph6538 (MIC) [23]: 10 µg/mL; paerug9027 (MIC) [24]: 5 µg/mL; yeast (MIC or MFC) [25]: 25 µg/mL; S. pneumoniae MIC [20]: 64 µg/mL; HC50 at 1 h [22]: 16 µg/mL
5 | FALALKKALKALKKAL-NH2 [P34] | 624 | 16 | 2500 | 1.25 | 0.75 | 1.25 | 8 | 8 | 40 | 16 | 40 | 8 | 4 | 53 | 9 | 62 | 24 | 21 | 35 | 4 | staph6538 (MIC) [23]: 5 µg/mL; paerug9027 (MIC) [24]: 50 µg/mL; yeast (MIC or MFC) [25]: 25 µg/mL; S. pneumoniae MIC [20]: 8 µg/mL; HC50 at 1 h [22]: 200 µg/mL
6 | KWKLFKKKTKLFKKFAKKLAKKL-NH2 [P73] | 624 | 8 | 2500 | 0.75 | 0.75 | 1.25 | 4 | 4 | 160 | 16 | 160 | 64 | 16 | 360 | 97 | 270 | 115 | 150 | 70 | 16 | staph6538 (MIC) [23]: 50 µg/mL; paerug9027 (MIC) [24]: 15 µg/mL; yeast (MIC or MFC) [25]: 100 µg/mL; S. pneumoniae MIC [20]: > 128 µg/mL; HC50 at 1 h [22]: 90 µg/mL
7 | KYKKALKKLAKLL-NH2 [P146] | 624 | 4 | 625 | 0.5 | 0.375 | 1.25 | 8 | 16 | 270 | 16 | 270 | 128 | 8 | 185 | 440 | 640 | 93 | 110 | 380 | 8 | staph6538 (MIC) [23]: 10 µg/mL; paerug9027 (MIC) [24]: 10 µg/mL; yeast (MIC or MFC) [25]: 50 µg/mL; S. pneumoniae MIC [20]: > 128 µg/mL; HC50 at 1 h [22]: 180 µg/mL

Source: patent publication US20050209157A1, “Short bioactive peptides and methods for their use” (priority 2001, published 2005)
